Experimental findings from patent US10935498B1, “Fluorescent probe for detecting nitroreductase and preparation method and use thereof in enzymatic reaction” (SOUTH CHINA UNIVERSITY OF TECHNOLOGY, priority 2018, dated 2021) are described below.

Molecules are shown by their SMILES.

A short description of data set [1]: Photostability (stated property). Format: physicochemical.
Data set [2] can be described thus: Toxicity (stated property).
The subject of the next data set is nitroreductase. Kind of data set: Fluorescent response of the probe to nitroreductase (NTR) in PBS buffer. Format: biochemical. Conditions: probe 10 μM, excitation 500 nm. The protocol: 1.5 mg of the solid fluorescent compound, 3-(4-(2-(4′-(diphenylamino)-3-((4-nitrobenzyl)oxy)-[1,1′-biphenyl]-4-yl)vinyl)quinolin-1-ium-1-yl)propane-1-sulfonate (TAE-NQS, prepared in Example 1), was dissolved in 2 mL of DMSO, and prepared into a 1 mM stock solution of the fluorescent compound. Before the test, of the fluorescent compound was diluted with a phosphate buffer (10 mM, pH 7.4), and a solution system to be tested containing 1% DMSO was obtained (final concentration of the probe was 10 μM).
3 μL of the above-mentioned stock solution of the fluorescent compound was drawn, and a blank control sample and test samples were prepared with PBS buffer solution (10 mM, pH=7.4). […] The samples were incubated at 37° C. for 15 minutes, then the absorption spectra ranging from 350 nm to 700 nm were recorded, and the fluorescence spectra were measured under the excitation light of 500 nm. […]
When the concentration of NTR was 2 μg/mL and the concentration of the probe was 10 μM, the fluorescence intensity varied over time, shown as FIG. 7. […] By controlling the temperature to be 37° C. and the incubation time to be 5 minutes, the fluorescence spectra under the excitation wavelength of 500 nm for each test sample were recorded. […]

The nature of data set [3]: Solubility (stated property). Format: physicochemical.

For the compound `O=[N+]([O-])c1ccc(COc2cc(-c3ccc(N(c4ccccc4)c4ccccc4)cc3)ccc2C=Cc2cc[n+](CCCS(=O)(=O)[O-])c3ccccc23)cc1` [TAE-NQS, 3-(4-(2-(4′-(diphenylamino)-3-((4-nitrobenzyl)oxy)-[1,1′-biphenyl]-4-yl)vinyl)quinolin-1-ium-1-yl)propane-1-sulfonate], the photostability result in data set [1] is reported as “good”. Moreover, the toxicity entry in data set [2] is given as “non-toxic”. Moreover, the “time in which the enzymatic reaction was completed” value in the data set with nitroreductase (NTR 0 μg/mL to 5 μg/mL, PBS pH 7.4, 37° C.) is no more than 30 min. Besides, the “fluorescence intensity compared with the blank sample” value in the data set with nitroreductase (nitroreductase 2 μg/mL, NADH 100 μM, PBS 10 mM pH 7.4, 37° C., 15 minutes) is “changed significantly”. The “solubility in solvents such as DMSO and DMF” value in data set [3] (DMSO, DMF) is reported as “easily soluble”. Also, the solubility in water result in data set [3] (water) was “slightly soluble”.
